Experimental data reported in patent publication US9872863B2, “Targeting primary cilia to treat glaucoma” (Indiana University Research and Technology Corporation, priority 2014, dated 2018).

Tests used:
wpk−/− rats = assay: Intraocular pressure in wpk−/− rats (Tonolab tonometer); format: in vivo, rat; details: 17-day-old wpk−/− rats, systemic, once per day for 8 days, agonist 50 ng/g, measured 24 hours after treatment
Method: All animal experiments followed the guidelines of the ARVO Statement for the Use of Animals in Ophthalmic and Vision Research and were approved by the Institutional Animal Care and Use Committee of Indiana University School of Medicine. Wpk rats, a polycystic kidney disease model, were housed under a 12-hour light/dark cycle with free access to water and food (Smith et al., Nat. Genet. 2006, 38(2):191-196). For […], 50 mg/ml sodium pentobarbital was injected.
(§1) lntraocular Pressure (TOP) was measured with the TONOLAB tonometer TV02 (Helsinki, Finland) with rats under topical anesthesia. IOP was measured using six valid rebound measurements of the device from the eye, where the mean of the middle five readings was taken for one summary measurement. A single set of readings was collected with the best reproducibility indicator during the IOP measurements.
Based on the results presented above, the functional consequences of activating TRPV4 on eye pressure were therefore assessed in the wpk rat model. The wpk rat is a well-established model for studying ciliopathy, as these animals develop hydrocephalus that responds to cilia-based therapy.
8-day old wpk^−/− rats were treated with sham, TRPV4 agonist (50 ng/g, GSK 1016790A), or antagonist (HC 067047) once per day for 8 days. […]

HTM cells = assay: Pressure-induced TNFα, TGFβ1 and Gli1 mRNA in serum-starved HTM cells (RT-PCR); format: cell-based, human; details: 50 mmHg for 3 hours
Method: Total RNA was extracted using the RNAEASY® kit (Qiagen). Purified RNA was quantitated with the NANODROP® 2000 (Thermo Fisher Scientific, Lafayette, Colo.). Reverse transcription of total RNA was done using SUPERSCRIPT cDNA synthesis kit (Invitrogen) with random hexamers. Quantitative RT-PCR was performed using the RQ and ΔΔCt method on a Step One Real-Time PCR machine (Bio-Rad Laboratories, Hercules, Calif.). Each assay was performed in triplicate with Power SYBR green MasterMix (SA Biosciences, Frederick, Md.).
To analyze the cellular changes in the TM cells, a hydrostatic pressure chamber was developed similar to that of Mandel et al. (Invest. Ophthalmol. Vis. Sci. 2010, 51(6):3129-3138). The cells were grown in 60 mm polycarbonate dishes sealed to attach to a plastic column filled with 400 mL DMEM/F12 media with or without serum for cilia induction. The column was temperature controlled at 37° C. in humidified chamber. […]
HTM cells were serum-starved for 48 hours and treated with saline, saline plus 50 mmHg pressure, chlorohydrate, and chlorohydrate plus 50 mmHg pressure for 3 hours. Levels of mRNA of TNFα, TGFβ1 and Gli1 were then measured. […] Serum-starved HTM cells were also placed under 50 mmHg pressure for 0, 10, 20, 40, 60 and 80 minutes and analyzed for expression of TNFα and IL-33. […]

C57BL/6 WT mice = assay: Intraocular pressure in C57BL/6 WT mice, 4 days of treatment; format: in vivo, mouse; details: nine-week old C57BL/6 WT mice, systemic, daily over 4 days, 24 hours after treatment; decrease from 12.4
Method: as §1
This finding was confirmed in wild-type C5BL/6 mice treated with systemic TRPV4 agonist, antagonist, or sham control, daily over 4 days. Nine-week old C57BL/6 WT mice were treated with sham, TRPV/4 agonist GSK 1016790A or antagonist HC 067047 for 4 days. IOP was measured using a Tonolab tonometer 24 hours after treatment. As shown in FIG. 12D article, a decrease in IOP from 12.4 to 10.3 mmHg was seen.

TRPV4 = molecular target: T1, TRPV4 (Homo sapiens, UniProt Q9HBA0); assay: Ca2+ imaging, Fura-2 F340/380 ratio after TRPV4 agonist; format: cell-based; design: TRPV4-induced calcium flux, ratio of F340/380: dose or concentration left out as unconfirmed
T1 construct: endogenous in cells; host or cells: HTM cells, NHF fibroblasts, NHKC keratinocytes, Lowe syndrome patient fibroblasts and keratinocytes
T1 sequence (Q9HBA0 whole entry): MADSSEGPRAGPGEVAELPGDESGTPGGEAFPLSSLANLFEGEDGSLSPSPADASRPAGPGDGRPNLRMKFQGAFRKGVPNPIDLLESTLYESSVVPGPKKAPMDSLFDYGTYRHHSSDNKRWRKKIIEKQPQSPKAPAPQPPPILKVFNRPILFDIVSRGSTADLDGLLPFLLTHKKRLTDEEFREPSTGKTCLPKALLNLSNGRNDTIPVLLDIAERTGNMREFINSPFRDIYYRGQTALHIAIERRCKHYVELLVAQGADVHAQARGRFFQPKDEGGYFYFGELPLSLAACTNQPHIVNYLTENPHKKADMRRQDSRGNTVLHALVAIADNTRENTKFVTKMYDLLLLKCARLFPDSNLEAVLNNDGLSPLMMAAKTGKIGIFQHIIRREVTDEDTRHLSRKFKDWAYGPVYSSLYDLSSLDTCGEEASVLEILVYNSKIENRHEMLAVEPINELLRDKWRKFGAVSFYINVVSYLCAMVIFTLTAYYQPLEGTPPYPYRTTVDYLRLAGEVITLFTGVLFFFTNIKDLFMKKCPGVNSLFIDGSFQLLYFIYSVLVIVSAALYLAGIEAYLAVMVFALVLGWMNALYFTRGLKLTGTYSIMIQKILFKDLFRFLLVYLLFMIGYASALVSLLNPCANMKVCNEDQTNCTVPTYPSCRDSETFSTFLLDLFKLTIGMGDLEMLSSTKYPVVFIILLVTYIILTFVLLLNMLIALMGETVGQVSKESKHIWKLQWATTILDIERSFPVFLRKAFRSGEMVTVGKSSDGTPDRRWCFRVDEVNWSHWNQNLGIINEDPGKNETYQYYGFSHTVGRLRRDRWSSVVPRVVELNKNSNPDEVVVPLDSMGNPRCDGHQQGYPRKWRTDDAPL
Method: Flow-induced Ca^2+ signals were examined in the presence and absence of cilia in HTM cells. To remove primary cilia, 2 mM aqueous chlorohydrate (Sigma, St. Louis) was added for 48 hours. Prior to flow experiments, cells were washed three times with PBS, and fresh medium was added for 24 hours. The Fura-2 loaded HTM cells were subjected to laminar flow rates as indicated. Single-cell analysis of the Ca^2+ signals (ratio 340/380 nm) of the same experiment was obtained. Intracellular Ca^2+ changes were monitored by ratiometric imaging of Fura-2 AM fluorescence in the HTM cells. HTM cells were loaded with Fura-2 AM for 1 hour at 37° C. in PBS with 40 μM fura-2 AM, 0.33 mM pyruvate, 0.901 mM Ca^2+, 0.5 mM Mg^2+, 5.5 mM glucose, and 0.1% BSA. The Fura-2 AM-loaded HTM cells were washed in PBS and were mounted in the chamber. Ca^2+ imaging experiments were performed using a monochromator-based TILL PHOTONICS imaging system, which was attached to an inverted ZEISS microscope equipped (×2.5 objective) with a back-illuminated ANDOR CCD camera. Fura-2 AM was alternately excited at 345 nm and 380 nm and the emitted light was collected using a 510-nm long-pass filter. The TILLVISION software (TILL PHOTONICS) was used to acquire all fluorescence imaging experiments and to perform the analysis of images. Images were acquired every 2 seconds. The background fluorescence was subtracted and the intracellular Ca^2+ concentration ([Ca^2+]i) was calculated using the equation: [Ca^2+]i=Kd×[(R−Rmin)/(Rmax−R)]×[Fmax(380)/Fmin(380)](R is the fluorescence ratio, Rmax is the ratio at saturation calcium concentration, Rmin is the ratio at zero calcium in the medium, Fmin(380) is the fluorescence at 380 nm at zero Ca^2+ concentration in the medium, and Fmax(380) is the fluorescence at 380 nm at saturation Ca^2+ concentration) (Touw et al., Am. J. Physiol. Gastro. Liver Physiology 2012, 302(1):G66-76).
For calcium flow experiments, HTM cells and NHF cells were first incubated in 3% BSA in PBS and stained with Fura2 dye for 1 hour. Ca^2+ flux was induced by laminar flow gradient (16 μl/s) over the cell surface, which bends cilia, followed by 10 mM KCl. Cells were imaged for calcium during flow. Calcium flux was also measured by F340/380 ratio in HTM cells and NHF cells after treatment with the 0.1 μM TRPV4 agonist GSK1016790A. Results presented represent calcium mobilization in three independent experiments.
HTM cells treated, with or without pressure, were further evaluated to determine their response to TRPV4 agonist. HTM cells were serum-starved for 48 hours to induce ciliogenesis, followed by treatment with 0 or 50 mmHg for 3 hours. Cells were loaded with Fura-2 AM dye for 1 hour, followed with […] TRPV4 agonist GSK1016790A.
OCRL is required for TRPV4-mediated calcium signalling in HTM cells. HTM cells were additionally treated with OCRL siRNA or scrambled control siRNA, with or without wild-type OCRL or OCRL-D499A rescue. 0.1 μM TRPV4 agonist GSK1016790A treatment was performed and calcium mobilization by F340/380 (value X 1000) was measured and shown.
Additionally, a Lowe syndrome patient's keratinocytes were isolated and assayed for their response to TRPV4 treatment. NHKC or Lowe keratinocytes were serum-starved, loaded with Fura-2 AM and then treated with 0.1 μM TRPV4 agonist GSK1016790A. F340/380 ratio (value X 1000) was determined.

Cc1c(C(=O)Nc2cccc(C(F)(F)F)c2)cc(-c2ccccc2)n1CCCN1CCOCC1 [HC 067047]
Intraocular pressure (wpk−/− rats): not

OC(O)C(Cl)(Cl)Cl [chlorohydrate]
Elevation of gene transcription (TNFα, TGFβ1, Gli1 mRNA) in response to pressure (HTM cells): reduced the elevation of gene transcription in response to pressure

CC(C)C[C@H](NC(=O)c1cc2ccccc2s1)C(=O)N1CCN(C(=O)[C@H](CO)NS(=O)(=O)c2ccc(Cl)cc2Cl)CC1 [GSK1016790A, N-((1S)-1-{[4-((2S)-2-{[(2,4-dichlorophenyl)sulfonyl]amino}-3-hydroxypropanoyl)-1-piperazinyl]carbonyl}-3-methylbutyl)-1-benzothiophene-2-carboxamide]
Intraocular pressure (wpk−/− rats): significantly reduced | IOP (C57BL/6 WT mice): 10.3 mmHg | Calcium mobilization by F340/380 (TRPV4; HTM cells treated with OCRL siRNA, 0.1 μM agonist, rescued by wild-type OCRL, not by D499A mutant): decrease in F340/F380 fura-2 signaling | Calcium mobilization (TRPV4; Lowe patient fibroblasts (Lowe 1, Lowe 2)): failed to elicit calcium mobilization | Calcium mobilization, F340/380 ratio (TRPV4; Lowe patient keratinocytes compared with normal keratinocytes (NHKC), 0.1 μM agonist): failed to elicit calcium mobilization | Calcium flux as measured by F340/380 ratio (TRPV4; NHF cells, 0.1 μM agonist): elicited | TRPV4-induced calcium flux, ratio of F340/380 (TRPV4; ciliated HTM cells, 50 mmHg hydrostatic pressure for 3 hours vs 0 mmHg): significant decrease in TRPV4-induced calcium flux
